Experiment in all cases: inhibition of tumour cell growth, NCI panel, 48 h
In assay [1] the test system is U251 CNS.
Assay [2] deals with HCT-116 colon.
For assay [3], the system named is A498 renal.
Assay [4] relates to HL-60(TB) leukemia.
In assay [5] the test system is LOX IMVI melanoma.
For assay [6], the system named is SN12C renal.
The subject of assay [7] is TK-10 renal.
For assay [8], the system named is HCC-2998 colon.
Assay [9] relates to MALME-3M melanoma.
The test system of assay [10] is SK-MEL-5 melanoma.

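In this assay, cells in 96-well plates receive the compound at five concentrations for 48 hours. Endpoints are linearly interpolated between the surrounding concentrations. GI50: concentration for 50% inhibition of growth. TGI: total growth inhibition.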

The values that follow come from PubChem BioAssay (NCI).

In the case of `CCOC(=O)CC1(C(=O)OCC)c2[nH]c3ccccc3c2CCN1Cc1ccccc1` (stereo not given), the TGI is 29 µM in assay [1]; 31.8 µM in assay [2]; 35.9 µM in assay [3]; 62.5 µM in assay [4]; 32.9 µM in assay [5]; 27.8 µM in assay [6]. The TGI is over 100 µM in assay [7], 28.9 µM in assay [8], 37.3 µM in assay [9] and 34.6 µM in assay [10].

`O=C(N/N=C/c1ccc(Cl)cc1)c1ccc(C(F)(F)F)nc1Nc1cccc(C(F)(F)F)c1`: the GI50 in assay [1] is 1.55 µM; in assay [2], 2.6 µM; in assay [3] it was 2.24 µM; in [4], 1.45 µM; in [5], 1.3 µM; in assay [6], 1.78 µM. For the same compound, the GI50 in [7] is 2.85 µM; in assay [8] it was 4.3 µM; in [9], 3.86 µM; in assay [10], 1.46 µM. Also, the TGI turned out to be 10.2 µM in [1]; 10.9 µM in assay [2]; 8.69 µM in assay [3]; 5.69 µM in assay [4]; 8 µM in assay [5]; 10.6 µM in assay [6]. For the same compound, the TGI in assay [7] came to 16.8 µM; in assay [8], 17.3 µM; in [9], 23 µM; in assay [10] it was 3.55 µM.

Turning to `CC1(C)C(=O)N(CCCCCCN2C(=O)C(C)(C)c3ccccc32)c2ccccc21`, the TGI is over 100 µM in assay [1]; 42.4 µM in assay [2]; over 100 µM in assay [3]; 19.7 µM in assay [4]; 43.5 µM in assay [5]; over 100 µM in [6]. The TGI in assay [7] is over 100 µM; in [8] it was over 100 µM; in [9], 75.8 µM; in assay [10], 33.5 µM.

In the case of `NP(=O)(Oc1c2occc2cc2ccc(=O)oc12)N(CCCl)CCCl` (stereo not given), the TGI in assay [1], in [2], in assay [3], in [4], in assay [5] and in assay [6] was over 100 µM in each case. For the same compound, the TGI in assay [7], in assay [8], in assay [9] and in assay [10] was over 100 µM throughout.

As for `CC(=O)CSCc1ccccn1`, the TGI is over 100 µM in [1]; over 100 µM in assay [2]; over 100 µM in assay [3]; 64.5 µM in assay [4]; over 100 µM in [5]; over 100 µM in assay [6]. In addition, the TGI in [7] is over 100 µM; in [8], over 100 µM; in assay [9] it was 9.99 µM; in [10], over 100 µM.

Consider `N#C/C(=C1C=C(Br)/C(=N\O)C=C\1Cl)c1cccc2ccccc12`, for which the TGI in assay [1] is 10.7 µM; in assay [2], 15.6 µM; in assay [3] it was 21.5 µM; in assay [4] it was 11.6 µM; in assay [5], over 100 µM; in assay [6], 23.2 µM. The TGI in [7] amounted to 24.1 µM; in assay [8], 17.7 µM; in assay [9] it was 21.4 µM; in assay [10], 13.4 µM.

Turning to `COc1cc2ncnc(Nc3ccc(C)c(O)c3)c2cc1OC`, the GI50 in assay [1] was 15.8 µM; in assay [2], over 25 µM; in assay [3], 5.56 µM; in assay [4], over 25 µM; in assay [5], 10.3 µM; in [6], 6.46 µM. Further, the GI50 in assay [7] is 3.62 µM; in assay [8], over 25 µM; in assay [9], over 25 µM; in assay [10] it was over 25 µM. Moreover, the TGI was over 25 µM in assay [1]; over 25 µM in [2]; 18 µM in assay [3]; over 25 µM in assay [4]; over 25 µM in [5]; over 25 µM in [6]. In addition, the TGI was 12 µM in assay [7], over 25 µM in assay [8], over 25 µM in assay [9] and over 25 µM in assay [10].

In the case of `CCCCC(O)(c1ccc(Cl)cc1)C(CN1CCOCC1)c1ccc(Cl)cc1` (stereo not given), the GI50 is 13.6 µM in assay [1]; 5.23 µM in assay [2]; 11.1 µM in assay [3]; 16.7 µM in [4]; 14.4 µM in [5]; 12.6 µM in assay [6]. In addition, the GI50 in assay [7] is 16.6 µM; in assay [8], 12.3 µM; in assay [9] it was 15.6 µM; in [10] it was 13.8 µM. Besides, the TGI in assay [1] came to 27.5 µM; in [2], 20.3 µM; in assay [3], 24.1 µM; in [4], 39.5 µM; in assay [5] it was 28.3 µM; in assay [6], 28.5 µM. Also, the TGI in assay [7] was determined as 31.2 µM; in assay [8] it was 26.8 µM; in [9] it was 33.8 µM; in assay [10] it was 28.7 µM.

Regarding `CCOC(=O)[C@@H](N)CCC(=O)N[C@@H](CSCc1ccccc1)C(=O)N[C@@H](C(=O)OCC)c1ccccc1`, the GI50 in [1] was 16.6 µM; in [2] it was 18.3 µM; in [3], 17.2 µM; in assay [4], 18.5 µM; in assay [5], 16.7 µM; in assay [6] it was 18 µM. The GI50 was 16.6 µM in assay [7], 16.7 µM in [8], 19.7 µM in assay [9] and 14.2 µM in [10]. The TGI in assay [1] turned out to be 31.3 µM; in assay [2], 36.8 µM; in assay [3], 38.8 µM; in [4], 39.5 µM; in assay [5] it was 32.1 µM; in [6] it was 34.9 µM. The TGI in assay [7] came to 32.7 µM; in assay [8] it was 32.2 µM; in assay [9], 36.2 µM; in assay [10] it was 27.5 µM.

As to `C[C@@H]1CC(=O)C2CCCC1C2=O` (stereo not given in full), the TGI in assay [1], in [2], in assay [3], in [4], in assay [5] and in [6] was over 100 µM each time. For the same compound, the TGI in assay [7], in [8], in assay [9] and in assay [10] was over 100 µM throughout.
